How the values were obtained:
Type in all cases: in vivo
Conditions in all cases: mice
B16 melanoma = assay: Antitumor effect against B16 melanoma, QD 1→9 ip
Method: (§1) Antitumor activity of representative compounds of the present invention was determined using in vivo murine transplantable P388 leukemia and B16 melanoma models.
B16 melanoma: male BDF1 mice were implanted with 0.5 ml of a 10% tumor brei intraperitoneally.
(§2) Test materials were dissolved in 0.9% saline containing 10% dimethyl sulfoxide and graded doses of them were administered to mice intraperitoneally 24 hrs after tumor implantation. Two dosing schedules were used for the P388 leukemia experiment: once daily on day 1 through day 3 (QD 1→3); and once daily on day 1 through day 9(QD 1→9). The QD 1→9 schedule was used for the B16 melanoma experiment.
(§3) Antitumor activity is evaluated as the increase in median survival time (MST) of treated (T) and control (C) animals for various dosage regimens expressed as a percentage ratio (T/C %=MST of treated.div.MST of control×100). For both in vivo P388 leukemia and in vivo B16 melanoma models, values for percentage ratios of 125 and above indicate significant antitumor effect.

P388 leukemia [1] = assay: Antitumor effect against P388 leukemia, QD 1→3 ip
Method: as §1
(§4) P388 leukemia: female CDF1 and male BDF1 mice were inoculated by intraperitoneal injection of 0.8 ml diluted ascitic fluid containing 10^6 cells.
as §2, §3

P388 leukemia [2] = assay: Antitumor effect against P388 leukemia, QD 1→9 ip
Method: as §1, §4, §2, §3

| SMILES | MST (% T/C) (P388 leukemia [1]; 1 mg/kg/day) | MST (% T/C) (P388 leukemia [1]; 3 mg/kg/day) | MST (% T/C) (P388 leukemia [2]; 0.13 mg/kg/day) | MST (% T/C) (P388 leukemia [2]; 0.25 mg/kg/day) | MST (% T/C) (P388 leukemia [2]; 0.63 mg/kg/day) | MST (% T/C) (P388 leukemia [2]; 1 mg/kg/day) | MST (% T/C) (P388 leukemia [2]; 2 mg/kg/day) | MST (% T/C) (P388 leukemia [1]; 10 mg/kg/day) | other results |
| --- | --- | --- | --- | --- | --- | --- | --- | --- | --- |
| CCCCCCC/C=C/C=C/C(=O)N[C@H](C(=O)N[C@H]1C[C@@H](O)CCNC(=O)/C=C/[C@H](C)NC1=O)[C@@H](C)O [BU-2867T A] | 145 % T/C | Tox | 130 % T/C | 150 % T/C | 110 % T/C | 190 % T/C | Tox |  | MST (% T/C) (B16 melanoma; 1 mg/kg/day): 116 % T/C; MST (% T/C) (B16 melanoma; 2 mg/kg/day): Tox; MST (% T/C) (B16 melanoma; .13 mg/kg/day): 97 % T/C; MST (% T/C) (B16 melanoma; .25 mg/kg/day): 100 % T/C; MST (% T/C) (B16 melanoma; .5 mg/kg/day): 113 % T/C; MST (% T/C) (P388 leukemia [1]; .3 mg/kg/day): 130 % T/C; MST (% T/C) (P388 leukemia [2]; 0.5 mg/kg/day): 155 % T/C |
| CCCCCC=CCCC=CC=CC(=O)NC(C(=O)NC1CC(O)CCNC(=O)C=CC(C)NC1=O)C(C)O (centres unmarked) [BU-2867T B] |  |  |  | 130 % T/C | 130 % T/C | 170 % T/C | 180 % T/C |  | MST (% T/C) (B16 melanoma; 2 mg/kg/day): Tox; MST (% T/C) (P388 leukemia [2]; 4 mg/kg/day): Tox |
| CCCCCCCCCC=CC=CC(=O)NC(C(=O)NC1CC(O)CCNC(=O)C=CC(C)NC1=O)C(C)O (centres unmarked) [BU-2867T C] |  |  | 130 % T/C | 160 % T/C |  | 170 % T/C |  | 57 % T/C | MST (% T/C) (B16 melanoma; 4 mg/kg/day): Tox; MST (% T/C) (P388 leukemia [2]; 4 mg/kg/day): 65 % T/C |
| CCCCCCCCCCCC(=O)N[C@H](C(=O)NC1CC(O)CCNC(=O)/C=C/C(C)NC1=O)[C@@H](C)O (some centres unmarked) [Example 1, n-Dodecanoyl-III] | 130 % T/C |  |  |  |  | 150 % T/C |  |  |  |
| CCCCCCCCCC(=O)N[C@H](C(=O)NC1CC(O)CCNC(=O)/C=C/C(C)NC1=O)[C@@H](C)O (some centres unmarked) [Example 2, n-Decanoyl-III] |  |  |  |  |  |  |  | 64 % T/C |  |
| CCCCCCCCCCCCCC(=O)N[C@H](C(=O)NC1CC(O)CCNC(=O)/C=C/C(C)NC1=O)[C@@H](C)O (some centres unmarked) [Example 3, n-Tetradecanoyl-III] |  |  |  |  |  | 150 % T/C | 150 % T/C | 55 % T/C |  |
| CCCCCCCCOc1ccc(C(=O)N[C@H](C(=O)NC2CC(O)CCNC(=O)/C=C/C(C)NC2=O)[C@@H](C)O)cc1 (some centres unmarked) [Example 6, p-n-Octyloxybenzoyl-III] | 150 % T/C | Tox | 140 % T/C | 150 % T/C | 120 % T/C | Tox |  |  |  |
| CCCCCCCCCCCCCCCC(=O)NC(C(=O)NC1CC(O)CCNC(=O)C=CC(C)NC1=O)C(C)O [Example 10, Palmitoyl-L-Threonyl-II] | 114 % T/C | 119 % T/C |  |  |  |  |  | 138 % T/C |  |

— patent publication US4789731A, “Semi-synthetic peptide antibiotics” (Bristol-Myers Company, priority 1987, dated 1988)
